A value given as a limit tells only on which side of the number the result lay.

The record followed here is patent publication US20190008803A1, “COMBINATIONS OF OPIOID RECEPTOR LIGANDS AND CYTOCHROME P450 INHIBITORS” (TREVENA, INC., priority 2015, published 2019).

One data set deals with mice. Put plainly: Hot plate assay for antinociception, subcutaneous dosing. In kind it is in vivo, mouse. As to conditions: for ED50: 0.5 h, re-tested 30 min after drug administration; for ED50 / analgesic effect in the mouse hot plate assay compared to morphine: SC. Here is the method: The hot plate assay is adapted from the procedure originally described by O'Callaghan and Holtzman (JPET, 192, 497, 1975) and is commonly used to determine the potential analgesic efficacy of opioid agonists. The antinociceptive effect of the composition(s) described herein in the hot plate is expressed in % MPE (Maximum Possible Effect).
Rats (175-250 g) or mice (20-30 g) acclimated to the vivarium for at least 48 hr prior to behavioral testing. Test drugs were administered by the subcutaneous (SC) route. Animals were placed on the hot plate, which the temperature was set at 50-56° C., depending on the in vitro potency of the compound. A cutoff time of 30-60 seconds was used depending on the temperature of the hot plate so that the paws of the animal displaying analgesia, was not damaged by the heat stimulus. The cutoff time was considered a 100% response to the thermal insult. Prior to drug treatment, each animal was tested to determine the baseline response. Thirty minutes after drug administration, animals were re-tested. Dose response experiments were performed to evaluate the potency of the test compound when various doses were administered at the point when maximal analgesia is observed.
The % MPE was calculated according to the following formula:
% MPE=[(Post drug latency−baseline latency)/(60 or 30−baseline latency)]×100
ED50 values were calculated from the mean % MPE values for each group using log dose-response curves by least-squares regression analysis.
On the technique in general: Hot-plate and tail-flick tests time the reaction to a heat stimulus.

In another data set the target is T1, CYP3A4 (Homo sapiens, UniProt P08684).
T1 construct: incubations of test compound (1 μM) with human liver microsomes (0.25 mg/mL); from tissue; host or cells: human liver microsomes
T1 sequence (P08684 whole entry): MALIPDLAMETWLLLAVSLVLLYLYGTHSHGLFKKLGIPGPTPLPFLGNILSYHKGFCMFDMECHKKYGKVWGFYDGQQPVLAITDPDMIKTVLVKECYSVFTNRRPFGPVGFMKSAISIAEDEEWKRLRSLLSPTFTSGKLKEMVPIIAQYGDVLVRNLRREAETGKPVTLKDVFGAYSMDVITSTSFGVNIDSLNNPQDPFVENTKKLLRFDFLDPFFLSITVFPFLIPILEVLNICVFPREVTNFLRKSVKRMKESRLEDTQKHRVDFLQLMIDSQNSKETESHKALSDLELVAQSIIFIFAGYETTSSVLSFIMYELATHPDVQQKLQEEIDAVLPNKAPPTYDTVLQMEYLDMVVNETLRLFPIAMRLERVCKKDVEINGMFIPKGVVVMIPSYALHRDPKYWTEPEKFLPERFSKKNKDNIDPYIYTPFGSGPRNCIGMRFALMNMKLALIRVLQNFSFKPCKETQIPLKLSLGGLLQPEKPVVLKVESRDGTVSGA
Kind of data set: Metabolic stability in human liver microsomes with/without troleandomycin: percent contribution of CYP3A4. It counts as in vitro ADME. As to conditions: human liver microsomes 0.25 mg/mL, test compound 1 μM, troleandomycin 50 μM; from intrinsic clearance without and with inhibitor. Here is the method: (§1) Compounds 141, 208, 246, 265, 267, 271 or 277 were analyzed to determine whether they are metabolized by CYP2D6 and/and/or CYP3A4. The studies were designed to evaluate the metabolic stability of compounds in human liver microsomes for the purpose of determining the percent contribution of CYP2D6 and CYP3A4 to their in vitro metabolism. […] Incubations are performed with or without CYP specific inhibitors. Incubations with the CYP2D6 direct inhibitor, quinidine (1 μM) quantify the percent contribution of CYP2D6 to metabolism. Incubations with the CYP3A4 metabolism-dependent inhibitor, troleandomycin (50 μM), define the percent contribution of CYP3A4. The percentage of CYP2D6 and CYP3A4 contribution is calculated using intrinsic clearance values in the absence and presence of the specific CYP inhibitor (Gibbs et al. 2006).
For orientation: Liver microsomes are a subcellular fraction often used to study metabolism.

The next data set concerns the target T2, CYP2D6 (Homo sapiens, UniProt P10635).
T2 construct: incubations of test compound (1 μM) with human liver microsomes (0.25 mg/mL); from tissue; host or cells: human liver microsomes
Kind of data set: Metabolic stability in human liver microsomes with/without quinidine: percent contribution of CYP2D6. In kind it is in vitro ADME. As to conditions: human liver microsomes 0.25 mg/mL, test compound 1 μM, quinidine 1 μM; from intrinsic clearance without and with inhibitor. On the procedure: as §1

The nature of data set [1]: Oral availability in humans with low versus normal CYP2D6 activity. As to conditions: human with low CYP2D6 activity compared to humans with normal CYP2D6 activity (data not shown). In kind it is in vivo.

T2 sequence (P10635 whole entry): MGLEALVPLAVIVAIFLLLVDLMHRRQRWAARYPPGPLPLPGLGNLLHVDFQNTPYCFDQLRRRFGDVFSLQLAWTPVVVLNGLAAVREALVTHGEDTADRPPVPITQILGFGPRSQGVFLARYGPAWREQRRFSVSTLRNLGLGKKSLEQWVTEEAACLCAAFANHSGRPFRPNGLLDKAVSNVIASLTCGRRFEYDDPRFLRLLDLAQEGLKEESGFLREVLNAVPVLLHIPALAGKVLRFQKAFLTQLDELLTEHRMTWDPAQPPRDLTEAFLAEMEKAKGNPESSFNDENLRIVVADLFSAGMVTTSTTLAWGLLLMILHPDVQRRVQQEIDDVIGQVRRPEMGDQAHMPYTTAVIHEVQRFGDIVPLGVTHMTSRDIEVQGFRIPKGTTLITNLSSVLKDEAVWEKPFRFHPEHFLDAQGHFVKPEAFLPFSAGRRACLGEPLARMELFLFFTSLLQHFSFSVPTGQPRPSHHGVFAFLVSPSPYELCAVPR

The ED50 is the midpoint of the dose-response relation. Lower therefore signals an effect at a small dose. In the data set on mice (mouse hot plate), `Cc1cccc(CNCC[C@@]2(c3ccc(F)cc3)CCOC3(CCCC3)C2)c1` [Compound 122, {2-[(9R)-9-(4-fluorophenyl)-6-oxaspiro[4.5]decan-9-yl]ethyl}[(3-methylphenyl)methyl]amine] gave an ED50 of 1.1 mg/kg. In addition, the “analgesic effect in the mouse hot plate assay compared to morphine” value in the data set with mice is “more robust analgesic effect”.
The compound `Clc1cncc(CNCC[C@@]2(c3ccccn3)CCOC3(CCCC3)C2)c1` [Compound 267] showed a CYP3A4 contribution at CYP3A4 of 55%. The same compound displayed a CYP2D6 contribution on CYP2D6 of 8%.
The corresponding values for `FC(F)(F)c1ccnc(CNCC[C@@]2(c3ccccn3)CCOC3(CCCC3)C2)c1` [Compound 277] are over 50% and over 20%.
For `Cc1ccc(CNCC[C@@]2(c3ccc(F)cc3)CCOC3(CCCC3)C2)s1` [Compound 145], the 50% effect level in the data set with mice (mouse hot plate) (ED50) was put at a dose of 5.9 mg/kg.
As to `FC(F)(F)c1cncc(CNCC[C@@]2(c3ccccn3)CCOC3(CCCC3)C2)c1` [Compound 271], on CYP3A4, the CYP3A4 contribution is recorded as 45%. The compound further returned a CYP2D6 contribution on CYP2D6 of 3%.
As to `Fc1ccc([C@]2(CCNCc3ccccc3)CCOC3(CCCC3)C2)cc1` [Compound 81, benzyl({2-[(9R)-9-(4-fluorophenyl)-6-oxaspiro[4.5]decan-9-yl]ethyl})amine], the “% MPE” value in the data set on mice (mouse hot plate, at 10 mg/kg SC) was 100% at 10.
For `COc1ccsc1CNCC[C@@]1(c2ccccn2)CCOC2(CCCC2)C1` [Compound 140, [(3-methoxythiophen-2-yl)methyl]({2-[(9R)-9-(pyridin-2-yl)-6-oxaspiro[4.5]decan-9-yl]ethyl})amine], the oral availability result in data set [1] is reported as “substantially higher oral availability”. The compound further came in with a CYP3A4 contribution on CYP3A4 of 50%. At CYP2D6, the CYP2D6 contribution stood at 50%.
`Cc1cccc(CNCC[C@@]2(c3ccccn3)CCOC3(CCCC3)C2)c1` [Compound 246]: the CYP3A4 contribution on CYP3A4 is 25%. For the same compound, the CYP2D6 contribution at CYP2D6 was determined as 80%.
Take `c1ccc(CNCC[C@@]2(c3ccccn3)CCOC3(CCCC3)C2)cc1` [Compound 28]: in the data set with mice (mouse hot plate), the median effective dose (ED50) is 1.2 mg/kg. Moreover, the “analgesic effect in the mouse hot plate assay compared to morphine” value in the data set with mice is given as “more robust analgesic effect”.
With `Brc1csc(CNCC[C@@]2(c3ccccn3)CCOC3(CCCC3)C2)c1` [Compound 208], the CYP3A4 contribution on CYP3A4 was 17%. On CYP2D6, this compound registered a CYP2D6 contribution of 3%.
`CN1CC[C@]23c4c5ccc(O)c4O[C@H]2[C@@H](O)C=C[C@H]3[C@H]1C5` [Morphine, reference compound]: the ED50 with mice (mouse hot plate) was 3.8 mg/kg. The “efficacy in the mouse hot plate” value in the data set on mice (at a dose of 10 mg/kg SC) is on record as “full efficacy”.
On CYP3A4, `Fc1cncc(CNCC[C@@]2(c3ccccn3)CCOC3(CCCC3)C2)c1` [Compound 265] returned a CYP3A4 contribution of over 50%.
